Values after ≈ are worked out from the molar mass of the structure shown.
What was measured:
[1] = tested on: HIV (human immunodeficiency virus); experiment: Anti-HIV activity (development of virus antigen in MT-4 cells); assay type: cell-based; details: DMSO only 80 to 90%
Procedure: (b) Anti-HIV (human immunodeficiency virus) activity
MT-4 cell (about 100,000 cells/ml) was added into a 24 well tray, and then 100 microliters of a solution containing a predetermined quantity of a compound of this invention was added. After culturing it at 37° C. for 5 hours in 5% (v/v) carbon dioxide incubator, 10^3 to 10^4 infection units of HIV was added and cultured for 4 days. Then, a part of the culture fluid was coated onto a slide glass and immobilized with acetone, after which development of virus antigen was observed by indirect fluorescent antibody method.
As the primary antibody of the fluorescent antibody method, a serum of AIDS patient was used. As its secondary antibody, FITC-labelled […] was used.

[2] = tested on: B lymphocyte (spleen cells stimulated by LPS); experiment: Inhibition of B lymphocyte blastgenesis caused by LPS; assay type: cell-based, BALB/C mouse; details: for inhibition at 4 µg/mL / inhibition at 20 µg/mL: Mus musculus, Lymphocyte, read-out: Inhibitory rate (%) on blastgenesis of B lymphocyte caused by LPS; for inhibition at 4 µg/mL: 4.0 μg/ml; for inhibition at 20 µg/mL: 20.0 μg/ml
Procedure: (§1) In the similar method to Waithe et al. (Waithe et al., Handbook of Experimental Immunology, 26, 1, 1978), compounds OXT-X, 2-amino-OXT-A and OXT-G were examined for the effect on lymphocyte blastgenesis.
Inhibition of B lymphocyte blastgenesis caused by LPS (lipopolysaccharide)
According to the method of Test Example 1 (except that 100 μg/ml of Escherichia coli LPS was added in place of Con A), the intake of ^3 [H]-thymidine into blastgenesis B cells was measured. The inhibitory rate of the test sample was similarly determined.

[3] = tested on: T lymphocyte (spleen cells stimulated by Con A); experiment: Inhibition of T lymphocyte blastgenesis caused by Con A; assay type: cell-based, BALB/C mouse; details: for inhibition at 0.8 µg/mL / inhibition at 4 µg/mL / inhibition at 20 µg/mL: Mus musculus, T-lymphocyte, read-out: Inhibitory rate (%) on T lymphocyte blastgenesis caused by Con A; for inhibition at 0.8 µg/mL: 0.8 μg/ml; for inhibition at 4 µg/mL: 4.0 μg/ml; for inhibition at 20 µg/mL: 20.0 μg/ml
Procedure: as §1
Inhibition of T lymphocyte blastgenesis caused by Con A:
Spleen cells of BALB/C mouse were dividingly poured into microplate at a rate of 2×10^5 cells/0.2 ml/well. Test compounds of varied concentration were added to wells other than control group. Further, Con A was added to all the wells at a rate of 5 micrograms/ml. Then, the cell suspensions were cultured at 37° C. for 72 hours in a culture chamber having an atmosphere of 5% v/v carbon dioxide. The extent of lymphocyte blastgenesis was determined by adding 1 μci/well of ^3 [H]-thymidine 6 hours before completion of culture and measuring the intake into cultured cells by means of a liquid scintillation counter. Numerical value (1-B dpm/A dpm)×100 was taken as inhibitory rate of each sample compound on blastgenesis, wherein A dpm was intake count in the case of adding Con A only and B dpm was intake count in the case of adding Con A and the sample compound.

[4] = tested on: MT-4 cells; experiment: Cell denaturation of MT-4 cells without virus; assay type: cell-based; details: 100 μg/ml
[5] = tested on: cytomegalovirus (A01169 strain); experiment: Anti-cytomegalovirus activity (plaque formation on human fetal fibroblasts); assay type: cell-based; details: for IC50: Human betaherpesvirus 5, Fibroblast, 240 h, human fetal fibroblasts, 10 days
[6] = tested on: herpes simplex virus type-2 (HSV-2) strain 186; experiment: Effect of treatment against HSV-2 infection in mice; assay type: in vivo, ICR mice; details: 5 days
Procedure: (a) Effect of treatment with OXTs against HSV-2 infection in mice
The 8-week old male ICR mice were inoculated intraperitoneally (ip) with herpes simplex virus type-2(HSV-2)strain 186 at 2.5×10^5 PFU/0.2 ml/mouse. OXTs were administered ip once a day with the indicated doses for 5 days, starting 6 hours after inoculation. The survival rates (%)of mice treated with OXTs were evaluated at least for 3 weeks after inoculation.

[7] = tested on: duck hepatitis B virus (DHBV); experiment: Efficacy against DHBV-infected duck (dot-blot hybridization of sera); assay type: in vivo; details: 6 days
Procedure: (c) Efficacy of OXT-G and 2-Amino-OXT-A against DHBV-infected Duck Newborn ducklings were intraperitoneally infected with 50 μl of duck hepatitis B virus (DHBV) containing sera. Persistent infection in ducks was confirmed by dot-blot hybridization of sera taken from 6 week old ducks. Ducks were intraperitoneally treated with the indicated doses of OXT-G and 2-Animo-OXT-A once a day for 6 days. After treatment of OXTs sera were collected and examined for the presence of DHBV-DNA by dot-blot hybridization as ^32 p-labeled DHBV DNA probe.

[8] = tested on: murine cytomegalovirus (MCMV) Smith strain; experiment: Titers of MCMV in various tissues of mice; assay type: in vivo, ICR mice; details: for Virus titer: 6 days after infection
[9] = tested on: murine cytomegalovirus (MCMV) Smith strain; experiment: Efficacy against MCMV infection in mice, body weight; assay type: in vivo, ICR mice; details: 10 mg/kg/day
Procedure: (b) Efficacy of treatment with OXT-G against MCMV infection in mice The 4-week old male ICR mice was inoculated intraperitoneally with Smith strain of murine cytomegalovirus (MCMV) at 1×10^5 PFU/0.2 ml and treated with 10 mg/kg/day of OXT-G once a day for 5 days, starting 6 hours after inoculation. The mortality and changes in body weight were monitored every day.

In the case of `O=c1[nH]c(=O)c2ncn([C@@H]3O[C@H](CO)[C@H]3CO)c2[nH]1` [OXT-X], the “Development of virus antigen (%)” value ([1]; 1 μg/ml) is reported as 66%, the “Development of virus antigen (%)” value ([1]; 10 μg/ml) is reported as 52% and the “Development of virus antigen (%)” value ([1]; 100 μg/ml) is reported as 5%. The “effect on blastgenesis of B lymphocyte stimulated by LPS” value (“effect on blastgenesis … by LPS” for short) [2] was “markedly suppressed”, the inhibition at 4 µg/mL [2] was 8% and the inhibition at 20 µg/mL [2] was 27%. The “effect on blastgenesis of T lymphocyte stimulated by Con A” value (from here on “effect on blastgenesis … by Con A”) [3] was “markedly suppressed”, the inhibition at 0.8 µg/mL [3] was 11% and the inhibition at 4 µg/mL [3] was 36%. For the same compound, the inhibition at 20 µg/mL [3] was 71% and the Cell denaturation [4] was “±~+”.

`Nc1ncnc2c1ncn2[C@@H]1O[C@H](CO)[C@H]1CO` [OXT-A, reference compound] showed an IC50 [5] of 13 µg/mL (≈ 51.7 µM).

`Nc1nc(N)c2ncn([C@@H]3O[C@H](CO)[C@H]3CO)c2n1` [2-Amino-OXT-A] was tested, and the “anti-cytomegalovirus inhibitory action” value [5] was “particularly outstanding in the inhibitory action”, the IC50 [5] was 2 µg/mL (≈ 7.51 µM) and the “Development of virus antigen (%)” value ([1]; 1 μg/ml) was 30%. The “Development of virus antigen (%)” value ([1]; 10 μg/ml) was 26%, the “Development of virus antigen (%)” value ([1]; 100 μg/ml) was 5% and the “effect on blastgenesis … by LPS” value [2] was “markedly suppressed”. For the same compound, the inhibition at 4 µg/mL [2] was 23%, the inhibition at 20 µg/mL [2] was 93% and the “effect on blastgenesis … by Con A” value [3] was “markedly suppressed”. For the same compound, the inhibition at 0.8 µg/mL [3] was 21%, the inhibition at 4 µg/mL [3] was 94% and the inhibition at 20 µg/mL [3] was 99%. For the same compound, the Survivor/Total ([6]; 10 mg/kg/day ip) was 7/10, the “survival rate (%)” value ([6]; 10 mg/kg/day ip) was 70% and the Cell denaturation [4] was “±~+”. For the same compound, the “Content (%) of DHBV in sera” value ([7]; 20 mg/kg/day ip) was 28%, the “Content (%) of DHBV in sera” value ([7]; 50 mg/kg/day ip) was 18% and the “Content (%) of DHBV in sera” value ([7]; 100 mg/kg/day ip) was 8%.

In the case of `Nc1nc2c(ncn2[C@@H]2O[C@H](CO)[C@H]2CO)c(=O)[nH]1` [OXT-G], the Virus titer ([8]; Kidney) is reported as less than 2 PFU/0.1 g tissue, the Virus titer ([8]; Liver) is reported as less than 2 PFU/0.1 g tissue and the Virus titer ([8]; Lung) is reported as less than 2 PFU/0.1 g tissue. The Virus titer ([8]; Spleen) was less than 2 PFU/0.1 g tissue, the “quantity of MCMV recovered from the tissues” value ([8]; mouse, in vivo) was “significant reduction in the quantity of MCMV recovered from the tissues” and the “anti-cytomegalovirus inhibitory action” value [5] was “particularly outstanding in the inhibitory action”. For the same compound, the IC50 [5] was 1 µg/mL (≈ 3.74 µM), the “Development of virus antigen (%)” value ([1]; 1 μg/ml) was 42% and the “Development of virus antigen (%)” value ([1]; 10 μg/ml) was 17%. The “effect on blastgenesis … by LPS” value [2] was “markedly suppressed”, the inhibition at 4 µg/mL [2] was 64% and the inhibition at 20 µg/mL [2] was 93%. The “effect on blastgenesis … by Con A” value [3] was “markedly suppressed”, the inhibition at 0.8 µg/mL [3] was 85% and the inhibition at 4 µg/mL [3] was 96%. For the same compound, the inhibition at 20 µg/mL [3] was 100%, the Survivor/Total ([6]; 5 mg/kg/day ip) was 3/10 and the “survival rate (%)” value ([6]; 5 mg/kg/day ip) was 30%. For the same compound, the Survivor/Total ([6]; 10 mg/kg/day ip) was 8/10, the “survival rate (%)” value ([6]; 10 mg/kg/day ip) was 80% and the Survivor/Total ([6]; 20 mg/kg/day ip) was 10/10. The “survival rate (%)” value ([6]; 20 mg/kg/day ip) was 100%, the “body weight of MCMV-infected mice” value [9] was “maintained their body weight on the initial level for several days and gradually gained weight thereafter” and the “Average (5 mice) of body weight” value ([9]; day 0) was 18.0 g. The “Average (5 mice) of body weight” value ([9]; day 4) was 20.0 g, the “Average (5 mice) of body weight” value ([9]; day 8) was 24.5 g and the “Average (5 mice) of body weight” value ([9]; day 14) was 31.0 g. The “Content (%) of DHBV in sera” value ([7]; 20 mg/kg/day ip) was 9%, the “Content (%) of DHBV in sera” value ([7]; 50 mg/kg/day ip) was 25% and the “Content (%) of DHBV in sera” value ([7]; 100 mg/kg/day ip) was 3%.

For `O=c1[nH]cnc2c1ncn2[C@@H]1O[C@H](CO)[C@H]1CO` [OXT-H, reference compound], the IC50 [5] was 18 µg/mL (≈ 71.4 µM).
